Laboratory results taken from US20020137781A1, “Preparation and use of enantiomer-pure 2,4-disubstituted oxazolines” (priority 1999, published 2002).

Tests used:
Bemisia tabaci = experiment: Effect against Bemisia tabaci; type: in vivo; conditions: 400 ppm spray on dwarf bean plants with nymphs, after a further 14 days
From the text: Dwarf bean plants are placed in gauze cages and colonised with adults of Bemisia tabaci. Following oviposition, all adults are removed. Ten days later, the plants and the nymphs thereon are sprayed with an aqueous emulsion spray mixture containing 400 ppm of the active ingredient. After a further 14 days, the percentage hatching rate of the eggs is compared with that of untreated controls.

Anthonomus grandis = experiment: Effect against Anthonomus grandis; type: in vivo; conditions: 400 ppm spray on cotton plants, adults, three days
Experimental: (§1) Young cotton plants are sprayed with an aqueous emulsion spray mixture containing 400 ppm of active ingredient. After the spray coating has dried on, the cotton plants are colonised with 10 adult Anthonomus grandis and placed in a plastic container. Three days later they are evaluated. The percentage reduction of the population and of the feeding damage (% response) is determined by comparing the total number of dead beetles and the feeding damage on the treated plants with those on the untreated plants.

Dermanyssus gallinae = experiment: Comparative in vitro effect on Dermanyssus gallinae
Experimental: 15 fed adult female mites of the genus Dermanyssus gallinae fixed on a plastic adhesive film are brought into contact with 50 μl of an aqueous suspension or emulsion of the test substance. The test is carried out with concentrations of 32, 10, 3.2, 1.0, 0.32 to 0.1 ppm. After drying, the film is stuck onto a glass disc. This creates a kind of air bubble around each mite, the lower surface of which is formed by the glass disc and the upper surface by a bulging of the adhesive film. This bubble contains sufficient air for the mite to avoid suffocating. After 5 days, the effect of the test substance is evaluated with the aid of a stereo-microscope by assessing the effect on mortality, egg deposition, egg quality, hatching rate, pupation rate, and development of protonymphs according to the following 4 criteria:
1. if 9 to 10 mites are dead, this indicates a lethal effect (M);
3. if 2 or more mites survive and produce eggs, but no larvae hatch from these eggs and no protonymphs develop, this indicates a development-inhibiting effect (H);
4. if 2 or more mites survive and lay the usual number of normal eggs, from which larvae hatch and develop into protonymphs, this indicates no activity.

Boophilus microplus = experiment: In vitro effect on Boophilus microplus; conditions: 100 to 0.32 ppm; BIARRA and ULAM strain identical
Experimental: Four test series each of 10 engorged female adults of Boophilus microplus are stuck to a plastic plate and covered for 1 hour with a wad of cottonwool soaked with an aqueous suspension or emulsion of the test substance. The test is carried out with concentrations of 100, 32, 10, 3.2, 1.0 and 0.32 ppm. The wad of cottonwool is then removed, and the ticks are incubated for 28 days for the eggs to be laid. The effect on Boophilus microplus is assessed according to the following 5 criteria:
1. Number of dead females (immobile with black discoloration) before ovipositon;
2. Number of ticks surviving for several days, but no eggs laid;
3. Number of cases in which eggs are laid, but nothing is hatched;
This test is carried out with both the BIARRA and the ULAM strain, and the results in both cases are identical.

Spodoptera littoralis = experiment: Effect on Spodoptera littoralis; type: in vivo; conditions: 400 ppm spray on soybean plants, third-instar larvae, three days
Experimental: as §1, with “soybean” for “cotton”, “deposit” for “coating”, “dried,” for “dried on,”, “the” for “the cotton”, “third-instar larvae of Spodoptera littoralis” for “adult Anthonomus grandis”, “caterpillars” for “beetles”

Diabrotica balteata = experiment: Effect on Diabrotica balteata larvae; type: in vivo; conditions: 400 ppm spray on corn seedlings, second instar larvae, six days
Experimental: Corn seedlings are sprayed with an aqueous emulsion spray mixture containing 400 ppm of active ingredient. After drying of the spray deposit, the corn seedlings are colonised with 10 second instar larvae of Diabrotica balteata and placed in a plastic container. Six days later they are evaluated. The percentage reduction of the population (% response) is determined by comparing the number of dead larvae on the treated plants with those on the untreated plants.

Aphis craccivora = experiment: Effect against Aphis craccivora; type: in vivo; conditions: 400 ppm spray on pea seedlings, 20° C., 3 and 6 days
Experimental: Pea seedlings are infected with Aphis craccivora, subsequently sprayed with a spray mixture containing 400 ppm of active ingredient, and then incubated at 20° C. 3 and 6 days later, they are evaluated. The percentage reduction of the population (% response) is determined by comparing the number of dead aphids on the treated plants with those on the untreated plants.

Heliothis virescens = experiment: Effect on Heliothis virescens caterpillars; type: in vivo; conditions: 400 ppm spray on soya plants, first-instar larvae, six days
Experimental: Young soya plants are sprayed with an aqueous emulsion spray mixture containing 400 ppm of active ingredient. After drying of the spray deposit, the soya plants are colonised with 10 first-instar larvae of Heliothis virescens and placed in a plastic container. Six days later they are evaluated. The percentage reduction of the population and percentage reduction in feeding damage (% response) is determined by comparing the number of dead larvae and the extent of feeding damage on the treated plants with those on the untreated plants.

Fc1cccc(F)c1C1=NC(c2ccc(-c3ccc(C(F)(F)F)cc3)cc2)CO1 (single isomer, unassigned) [1.1, 2-(2,6-difluoro-phenyl)-4-(4′-trifluoromethylbiphenyl-4-yl)-4,5-dihydro-oxazole]
response (percentage hatching rate of the eggs vs untreated controls) (Bemisia tabaci): more than 80%
percentage reduction of the population and of the feeding damage (% response) (Anthonomus grandis): more than 80%
concentration that completely inhibits the development of protonymphs (Dermanyssus gallinae; after 5 days): ≤ 0.0064 ppm
Type of activity (Dermanyssus gallinae; at the EC100 of the same table line, listed as Enantiomer A): 1
EC100 (minimum dosage to reach 100% mortality) (Dermanyssus gallinae; fed adult female mites, evaluated after 5 days, listed as Enantiomer A): 0.0064 ppm
activity relative to enantiomer B (Dermanyssus gallinae; ratio of EC100): 3000-5000 times
activity relative to the racemate (Dermanyssus gallinae; ratio of EC100): more than 30 times
activity on Boophilus microplus (in words) (Boophilus microplus): most active test substance
percentage reduction of the population and of the feeding damage (% response) (Spodoptera littoralis): more than 80%
percentage reduction of the population (% response) (Diabrotica balteata): more than 80%
percentage reduction of the population (% response) (Aphis craccivora): more than 80%
percentage reduction of the population and percentage reduction in feeding damage (% response) (Heliothis virescens): more than 80%
